The results in this text go back to patent US10849874B2, “Use of composition for modulating angiogenesis” (National Sun Yat-sen University, priority 2015, dated 2020).

The subject of series [1] is vascular endothelial growth factor (VEGF). In words: Staining of VEGF expression level in tissue of burn wound. In kind it is in vivo, rat. The note with it: rats, lotion containing EXC-B. How it is done:
(§1) (b) Immunohistochemistry Staining:
(§2) Mice were scarified by cervical dislocation. The skin tissues of the backs of the mice were collected, fixed with formalin buffer and embedded in paraffin. The tissue sections were treated with a graded alcohol bath after the paraffin-embedded tissue sections (2 μm) were deparaffinized by xylene. Next, the sections reacted with 0.3% hydrogen peroxide for 30 minutes to remove endogenous peroxidase. After the paraffin-embedded tissue sections reacted with a protein K in a 4% phosphate buffer for 20 minutes at 37° C., the paraffin-embedded tissue sections were washed with 4% phosphate buffer and then blocked with horse serum diluted by phosphate buffer for 1 hr. Next, the sections were incubated with a diluted target protein antibody for 18-20 hr at 4° C. in a humid environment. After recycling the antibody, the horse serum was reused to incubate the sections for 1 hr and the sections subsequently reacted with an added corresponding secondary antibody for 90 minutes. After the sections reacted with ABC kit, DBA was used to produce color reaction, and the sections were air-dried with a graded alcohol bath and covered with a cover glass. The completed sample section was placed in an optical microscope (DM 6000, Leica Inc, Germany) and a stereomicroscope (APO Z16, Leica Inc. Singapore). […]

The next series relates to substance P. As to the kind of experiment: Staining of itchy factor (substance P as marker) in atopic eczema. In kind it is in vivo. The note with it: balb/c mice, 50 μg/0.2 ml of excavatolide B in lotion (FIG. 9). How it is done: (§3) The balb/c mice were used in this experiment. The method for inducing atopic eczema comprised: (1) prepared 1% DNCB in olive oil/acetone (1:4); and (2) applied 1% DNCB on the shaved skins of the backs of balb/c mice at day 1, 3, 9, and 11, respectively. The balb/c mice were randomly divided into three groups: (A) the control group; (B) the atopic eczema group; and (C) the EXC-B treating group. The EXC-B treating group was treated with excavatolide B for seven consecutive days starting from day 15. Next, the present invention assessed the treating effect of EXC-B on atopic eczema by image analysis of the appearance.
as §1
(§4) Mice were scarified by cervical dislocation. The skin tissues of the backs of the mice were collected, fixed with formalin buffer and embedded in paraffin. The tissue sections were treated with a graded alcohol bath after the paraffin-embedded tissue sections (2 μm) were deparaffinized by xylene. Next, the sections reacted with 0.3% hydrogen peroxide for 30 minutes to remove endogenous peroxidase. After the paraffin-embedded tissue sections reacted with a protein K in a 4% phosphate buffer for 20 minutes at 37° C., the paraffin-embedded tissue sections were washed with 4% phosphate buffer and then blocked with horse serum diluted by phosphate buffer for 1 hr. […]

The next series deals with burn wound. In words: Healing of burn wound (wound appearance and wound area). In kind it is in vivo, Male Wistar rats. The note with it: rats; for wound healing depended on time (burned restoring area, area under the curve) compared to burn wound group and lotion treating group: day 0-27 (FIG. 4). Here is the method:
(b) Preparation of Animal and Operation of Burn Wound:
Male Wistar rats (400-450 g) were used in this experiment. After the rats were anesthetized by 2.5% isoflurane, the present invention selected four burned locations (two locations beneath the scapula of the rat and two locations in the midline of the lumbar spine) on the back of the anesthetized rat. The skins of the burned locations were tightened, and a copper block (2×2 cm) which was preheated to 175° C. by a dry bath was used to closely touch these skins of the locations for 10 seconds to form burn wounds of full-layered skins. The copper block was appropriately moved in order to form a quadrilateral form of burn wound during the burning process. Attention was paid not to add extra pressure on the copper block in order to ensure the same burn pressure each time during the burning process.
(§5) (c) Wound Observation and Area Calculation:
After being burned, the rats were anesthetized and then taken pictures according to experimentally designed dates. A series of pictures were taken by a digital camera (Coolpix P6000, Nikon, Japan) under the same condition (the diaphragm is 7.2, and the camera shutter is 1/60). A digital image capture system software (Diagnostic Instruments, Inc., Sterling Heights, Mich., U.S.A.) was used to analyze the captured wound pictures to calculate the wound area. The data of the wound area at each observation point were respectively presented at percentage of the wound area relative to day zero.

Another series deals with diabetic incised wound. In words: Healing of diabetic incised wound (wound appearance and wound area). In kind it is in vivo, Male Wistar rats. The note with it: STZ-diabetic rats. How it is done: (a) Preparation of Animal and Operation of Incised Wound in Diabetic Rat:
Male Wistar rats (400-450 g) were used in this experiment. The induction of diabetes was performed by using a citrate buffer solution to prepare streptozotocin (STZ, catalog No. 85882 FLUKA, Sigma, St. Louis, Mo., USA). The rats were anesthetized by 2.5% isoflurane and administered with STZ (60 mg/kg) by tail intravenous injection. A week after STZ injection, those rats with blood glucose levels more than 250 mg/dl were identified as successfully diabetic inducted rats. […] After the surgery of the incision of full-layered skins, the rats were randomly divided into two groups: (1) diabetic incised wound group (administered a normal lotion); and (2) EXC-B treating group (administered a lotion containing excavatolide B). The EXC-B treating group was treated with 1 mg/0.2 ml of excavatolide B in the lotion daily.
as §5
After being burned, the rats were anesthetized and then taken pictures according to experimentally designed dates. A series of pictures were taken by a digital camera (Coolpix P6000, Nikon, Japan) under the same condition (the diaphragm is 7.2, and the camera shutter is 1/60). A digital image capture system software (Diagnostic Instruments, Inc., Sterling Heights, Mich., U.S.A.) was used to analyze the captured wound pictures to calculate the wound area. […]

Another series concerns filaggrin. In words: Staining of regulating factor for skin barrier function (filaggrin as marker) in atopic eczema. In kind it is in vivo. The note with it: balb/c mice, 50 μg/0.2 ml of excavatolide B in lotion (FIG. 10). How it is done:
as §3, §1, §4

The subject of series [2] is angiogenesis (blood vessels marked by vWF). In words: Staining of angiogenesis (blood vessels marked by vWF) in tissue of burn wound. In kind it is in vivo, rat. The note with it: rats, lotion containing EXC-B, versus silver sulphadiazine treating group (FIG. 6). How it is done: as §1, §2
Another series relates to atopic eczema. In words: DNCB-induced atopic eczema model, image analysis of skin appearance. In kind it is in vivo. The note with it: balb/c mice. Here is the method:
(a) Preparation of Animal and Induction of Atopic Eczema:
as §3

The next series has as its system burn wound tissue. As to the kind of experiment: HE staining of tissue section of burn wound. In kind it is in vivo, Male Wistar rats. The note with it: rats, lotion containing EXC-B; HE stained tissue section (FIG. 5). How it is done:
Pathologic Tissue Slice and HE Staining
After the rats had suffered injuries for specific days according to experimental design they were humanely sacrificed, PBS containing heparin (0.2 U/ml) at 4 degrees Celsius was injected into aorta until PBS carrying no color flowed out of the vein. 4% paraformaldehyde at 4° C. was injected to fasten it, the wounded area was carefully taken out by surgical blades and immersed into 10% Formalin fixing solution to be reserved at 4° C. and fixed for several days. Next, the fixed tissue was dehydrated and wax infiltrated. The skin tissue was dehydrated and wax infiltrated by utilizing a tissue automatic processing system. Afterwards, the tissue was embedded by a paraffin embedding machine into paraffin blocks. After tissue blocks were sliced through a paraffin microtome, tissue slices were stained by using hematoxylin and eosin stain. Upon completion, tissue slices were mounted by micro-mount, and completed sample slices then were placed on an optical microscope for observation, the sample slices were further photographed and recorded by the digital image capture system.

Another series relates to VEGF. In words: Staining of VEGF expression level in tissue of atopic eczema. The note with it: balb/c mice, 50 μg/0.2 ml of excavatolide B in lotion (FIG. 8). In kind it is in vivo. Here is the method: as §3, §1, §4

With excavatolide B [EXC-B], in series [1] (versus lotion treating group (FIG. 6)), the “expression level of the VEGF of the burned tissue” value is listed as “substantially increased”. For the same substance, the “treating effect on VEGF expression of the burned tissue relative to silver sulphadiazine” value in series [1] (versus silver sulphadiazine treating group (FIG. 6)) was “better than the effect of the silver sulphadiazine”. Further, the “itchy factors (the substance P as the marker) in the tissue of the skin” value in the series with substance P was “significantly inhibited”. Besides, the “wound healing depended on time (burned restoring area, area under the curve) compared to burn wound group and lotion treating group” value in the series with burn wound (10 μg EXC-B treating group) and in the series with burn wound (50 μg EXC-B treating group) was “significantly accelerate wound healing” each time. For the same substance, the “wound healing (appearance, image analysis) after burn injury” value in the series with burn wound (10 μg/0.2 ml of EXC-B in lotion, appearance at 2-24 days after burn injury (FIG. 3 K-O)) is given as “significantly improved”; in the series on burn wound (50 μg/0.2 ml of EXC-B in lotion, appearance at 2-24 days after burn injury (FIG. 3 P-T)), “significantly improved”. Further, in the series on diabetic incised wound (1 mg/0.2 ml of excavatolide B in lotion daily, topical, appearance at 4-25 days after incised injury (FIG. 1)), the “wound healing (appearance, image analysis) compared to the diabetic incised wound group” value is recorded as “significantly improved”. Further, in the series with diabetic incised wound (1 mg/0.2 ml of excavatolide B in lotion, at day 7, 21, and 28 (FIG. 2)), the “wound healing (wound restoring area depended on time) compared to the diabetic incised wound group” value is recorded as “significantly improved”. For the same substance, the “decrease of the regulating factor (filaggrin as the marker) for skin barrier function” value in the series on filaggrin was “recovered”. The “rate of vascular proliferation (blood vessels marked by vWF)” value in [2] is given as “higher than that of the silver sulphadiazine treating group”. The “side effects of the clinical treatment, such as skin dryness and albinism” value in the series on atopic eczema (50 μg/0.2 ml of excavatolide B in lotion (FIG. 7)) is “no side effects of the clinical treatment were observed”. Moreover, the “condition of the treated skin (inflammations, scratched wounds)” value in the series on atopic eczema (50 μg/0.2 ml of excavatolide B in lotion, seven consecutive days from day 15 (FIG. 7)) was “significantly better than the skin of the atopic eczema”. Further, the “tissue changes induced by burn injury (thickening of epithelial layer, damages to dermis, infiltration of neutrophils)” value with burn wound tissue was “significantly improved”. In addition, the “increased expression of the VEGF in the tissue of atopic eczema” value in the series on VEGF was “inhibited”.
